Values after ≈ are worked out from the molar mass of the structure shown. Non-standard residues stand in square brackets, D forms with d. Residues, ends and D or L forms follow the SMILES beside them. *: point of attachment. 1Nal = N[C@@H](Cc1cccc2ccccc12)C(=O)O; Lauroyl = CCCCCCCCCCCC(=O)*; Decanoyl = CCCCCCCCCC(=O)*
Experiments:
Format in all cases: cell-based
[1] = tested on: Propionibacterium acnes ATCC 6919; assay: MIC, agar dilution method NCCLS M11-A6, Brucella agar, anaerobic (Table 9, superscript c); settings: ATCC 6919
How it was run: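 MIC taken as the lowest peptide level giving no colonies on the plate. Plates were inoculated to 1.5×10^8 CFU/milliliter, then kept anaerobically at 37° C. for 48-96 hours; method follows NCCLS M11-A6.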

[2] = tested on: Staphylococcus aureus ATCC 29213; assay: MIC, NCCLS M7-A6 broth microdilution, cation-adjusted Mueller Hinton broth (Table 9, no superscript); settings: ATCC 29213
How it was run: (§1)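 Broth microdilution in cation-adjusted Mueller Hinton broth with log-phase inoculum at 5×10^5 to 1×10^6 CFU/mL, incubated overnight at 37° C. MIC was the lowest peptide concentration showing no visible turbidity versus the no-peptide control.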

[3] = tested on: Staphylococcus epidermidis ATCC 12228; assay: MIC, NCCLS M7-A6 broth microdilution (Table 9, no superscript); settings: ATCC 12228
How it was run: as §1

[4] = tested on: Pseudomonas aeruginosa ATCC 27853; assay: as above; settings: ATCC 27853
How it was run: as §1

Salmonella dublin (Lane) = assay: as above
How it was run: as §1

[5] = tested on: Escherichia coli ATCC 25922; assay: as above; settings: ATCC 25922
How it was run: as §1

CCCCCCCCCCCC(=O)N[C@H](CCCNC(=N)N)C(=O)N[C@H](CC(C)C)C(=O)N[C@H](CCCNC(=N)N)C(=O)N[C@H](Cc1c[nH]c2ccccc12)C(=O)N[C@H](CCCNC(=N)N)C(=O)N[C@H](CCC(=O)O)C(=O)N[C@@H](C(=O)N[C@H](C)C(=O)N[C@H](CCCNC(=N)N)C(=O)N[C@H](CC(C)C)C(=O)N[C@H](Cc1ccccc1)C(=O)N[C@H](CC(C)C)C(=O)N[C@H](CCCNC(=N)N)C(N)=O)C(C)C [Peptide 227, Lauryl-rlrwrevarlflr-NH2] (Lauroyl-[dR][dL][dR][dW][dR][dE][dV][dA][dR][dL][dF][dL][dR]-NH2)
MIC P. acnes [1]: >64c ug/mL | MIC S. aureus [2]: 32 µg/mL (≈ 16.4 µM) | MIC S. epidermidis [3]: 32 µg/mL (≈ 16.4 µM) | MIC P. aeruginosa [4]: >64 µg/mL | MIC S. dublin (Salmonella dublin (Lane)): 32 µg/mL (≈ 16.4 µM) | MIC E. coli [5]: 64 µg/mL (≈ 32.8 µM)

CCCCCCCCCCCC(=O)N[C@H](CCCNC(=N)N)C(=O)N[C@H](CCCCN)C(=O)N[C@H](CCCNC(=N)N)C(=O)N[C@H](Cc1c[nH]c2ccccc12)C(=O)N[C@H](CCCNC(=N)N)C(=O)N[C@H](CC(=O)O)C(=O)N[C@@H](C(=O)N[C@H](C)C(=O)N[C@H](CCCNC(=N)N)C(=O)N[C@H](CC(N)=O)C(=O)N[C@H](Cc1ccccc1)C(=O)N[C@H](CC(C)C)C(=O)N[C@H](CCCNC(=N)N)C(N)=O)C(C)C [Peptide 219, Lauryl-rkrwrdvarnflr-NH2] (Lauroyl-[dR][dK][dR][dW][dR][dD][dV][dA][dR][dN][dF][dL][dR]-NH2)
MIC P. acnes [1]: 16c ug/mL | MIC S. aureus [2]: 4 µg/mL (≈ 2.05 µM) | MIC S. epidermidis [3]: 2 µg/mL (≈ 1.02 µM) | MIC P. aeruginosa [4]: 4 µg/mL (≈ 2.05 µM) | MIC S. dublin (Salmonella dublin (Lane)): 4 µg/mL (≈ 2.05 µM) | MIC E. coli [5]: 8 µg/mL (≈ 4.09 µM)

CCCCCCCCCCCC(=O)N[C@@H](CCCNC(=N)N)C(=O)N[C@@H](CO)C(=O)N[C@@H](CCCNC(=N)N)C(=O)N[C@@H](Cc1c[nH]c2ccccc12)C(=O)N[C@@H](CCCNC(=N)N)C(=O)N[C@@H](CC(=O)O)C(=O)N[C@@H](Cc1cccc2ccccc12)C(=O)N[C@@H](C)C(=O)N[C@@H](CCCNC(=N)N)C(=O)N[C@@H](CC(N)=O)C(=O)N[C@@H](Cc1ccccc1)C(=O)N[C@@H](CCSC)C(=O)N[C@@H](CCCNC(=N)N)C(N)=O [Peptide 150, Lauryl-RSRWRDZARNFMR-NH2 Z = 1-naphthylalanine] (Lauroyl-RSRWRD[1Nal]ARNFMR-NH2)
MIC P. acnes [1]: >64c ug/mL | MIC S. aureus [2]: 8 µg/mL (≈ 3.94 µM) | MIC S. epidermidis [3]: 4 µg/mL (≈ 1.97 µM) | MIC P. aeruginosa [4]: >64 µg/mL | MIC S. dublin (Salmonella dublin (Lane)): 32 µg/mL (≈ 15.8 µM) | MIC E. coli [5]: 64 µg/mL (≈ 31.5 µM)

CCCCCCCCCC(=O)N[C@@H](CCCNC(=N)N)C(=O)N[C@@H](CO)C(=O)N[C@@H](CCCNC(=N)N)C(=O)N[C@@H](Cc1c[nH]c2ccccc12)C(=O)N[C@@H](CCCNC(=N)N)C(=O)N[C@@H](CC(=O)O)C(=O)N[C@H](C(=O)N[C@@H](C)C(=O)N[C@@H](CCCNC(=N)N)C(=O)N[C@@H](CC(N)=O)C(=O)N[C@@H](Cc1ccccc1)C(=O)N[C@@H](CCSC)C(=O)N[C@@H](CCCNC(=N)N)C(N)=O)C(C)C [Peptide 204, Decanyl-RSRWRDVARNFMR-NH2] (Decanoyl-RSRWRDVARNFMR-NH2)
MIC P. acnes [1]: >64c ug/mL | MIC S. aureus [2]: 8 µg/mL (≈ 4.2 µM) | MIC S. epidermidis [3]: 2 µg/mL (≈ 1.05 µM) | MIC P. aeruginosa [4]: 32 µg/mL (≈ 16.8 µM) | MIC S. dublin (Salmonella dublin (Lane)): 32 µg/mL (≈ 16.8 µM) | MIC E. coli [5]: 8 µg/mL (≈ 4.2 µM)
